# Values quoted from earlier work as cited in article PMC8287861 (Frontiers in Microbiology, 2021).
# Read-outs that look alike come from different tables or passages of the source.
# Assays:
# Pseudomonas aeruginosa [1] = system: Pseudomonas aeruginosa; design: method as in Lomovskaya et al. (2021); conditions: ref Lomovskaya et al. (2021); for MIC50 / MIC90: challenge panel, QPX7728 at 8 μg/ml
# [2] = system: isogenic strains of P. aeruginosa that produced KPC; design: method as in Lomovskaya et al., 2020a; conditions: ref Lomovskaya et al., 2020a
# [3] = system: KPC-producing strains of Klebsiella pneumoniae and blaKPC mutants; design: method as in Nelson et al., 2019; conditions: ref Nelson et al., 2019
# Pseudomonas aeruginosa [4] = system: Pseudomonas aeruginosa; design: method as in Lomovskaya et al. (2021); conditions: panel reflecting current MIC distribution (N = 500); QPX7728 at 8 μg/ml; ref Lomovskaya et al. (2021)
# [5] = system: Enterobacterales producing ESBLs and carbapenemases; design: method as in Rubio-Aparicio et al., 2019; conditions: ref Rubio-Aparicio et al., 2019
# [6] = system: carbapenem resistant Acinetobacter baumannii; conditions: ref Nelson et al., 2020b
# β-lactamases = conditions: ref Hecker et al. (2020)
# [7] = KP1252, KPC-3, TEM-1, SHV-11/FL
# [8] = KPM3191, KPC-3:: DDK duplication at aa#831 (KPC-29)
# [9] = KPM3192, KPC-3:: D179Y (KPC-31)
# [10] = KPM3200, KPC-3::duplication of EAVI (aa#278)
# [11] = KPM3205, KPC-3 ::duplication of KKDY (aa#273)
# [12] = KPM3212, deletion of ELNSAI at aa#497
# [13] = KPM3213, KPC-2::D179Y (KPC-31), selected from KP1099
# [14] = KPM3493, KPC-3::duplication of EL at aa#164 (KPC-25)
# [15] = 275 clinical isolates, meropenem alone
smiles,measurement,setting,value
"C[C@H]1[C@H](NC(=O)/C(=N\OC(C)(C)C(=O)O)c2csc(N)n2)C(=O)N1S(=O)(=O)O [Aztreonam, aztreonam]",MIC50,Pseudomonas aeruginosa [1]; All (N = 290),32 µg/mL
same,MIC90,Pseudomonas aeruginosa [1]; All (N = 290),>64 µg/mL
same,MIC50,Pseudomonas aeruginosa [1]; MBL (N = 61),32 µg/mL
same,MIC90,Pseudomonas aeruginosa [1]; MBL (N = 61),>64 µg/mL
same,MIC50,Pseudomonas aeruginosa [1]; No MBL (N = 229),32 µg/mL
same,MIC90,Pseudomonas aeruginosa [1]; No MBL (N = 229),>64 µg/mL
C[C@@H](O)[C@H]1C(=O)N2C(C(=O)[O-])=C(SC3Cn4cnc[n+]4C3)[C@H](C)[C@H]12 (stereo partly shown) [Biapenem],Biapenem MIC,"[2]; PAM4126, mexR (MexAB-OprM)",64 µg/mL
same,Biapenem MIC,"[2]; PAM4129, nfxB (MexCD-OprJ)",8 µg/mL
same,Biapenem MIC,"[2]; PAM4132, mexT (MexEF-OprM)",128 µg/mL
same,Biapenem MIC,"[2]; PAM4150, mexZ (MexXY-OprM)",64 µg/mL
same,Biapenem MIC,"[2]; PAM4224, Wild-type",64 µg/mL
same,Biapenem MIC,"[2]; PAM4365, MexA::Tet",64 µg/mL
same,MIC of the vector only strain,"[2]; vector only counterpart of PAM4126, mexR (MexAB-OprM)",0.125 µg/mL
same,MIC of the vector only strain,"[2]; vector only counterpart of PAM4129, nfxB (MexCD-OprJ)",0.03 µg/mL
same,MIC of the vector only strain,"[2]; vector only counterpart of PAM4132, mexT (MexEF-OprM)",0.5 µg/mL
same,MIC of the vector only strain,"[2]; vector only counterpart of PAM4150, mexZ (MexXY-OprM)",0.25 µg/mL
same,MIC of the vector only strain,"[2]; vector only counterpart of PAM4224, Wild-type",0.25 µg/mL
same,MIC of the vector only strain,"[2]; vector only counterpart of PAM4365, MexA::Tet",0.25 µg/mL
"CO/N=C(\C(=O)N[C@@H]1C(=O)N2C(C(=O)[O-])=C(C[N+]3(C)CCCC3)CS[C@H]12)c1csc(N)n1 [Cefepime, cefepime]",MIC,"[3]; KP1074, KPC-3, SHV-11, TEM-1/GD",>128 µg/mL
same,MIC,"[3]; KP1099, KPC-2, SHV-11, SHV-12, CTX-M-14/GD",>128 µg/mL
same,MIC,"[3]; KP1102, KPC-3, TEM-1, SHV-11/GD",>128 µg/mL
same,MIC,"[3]; KP1246, KPC-3, SHV-12, SHV-11/FL",128 µg/mL
same,MIC,[3]; [7],>128 µg/mL
same,MIC,"[3]; KP1317, KPC-3, TEM-1, SHV-11/GD",>128 µg/mL
same,MIC,"[3]; KP1500, KPC-3, TEM-1, SHV-11, CTX-M-15 OXA-1 OXA-9/IS at −48",>128 µg/mL
same,MIC,[3]; [8],64 µg/mL
same,MIC,[3]; [9],32 µg/mL
same,MIC,[3]; [10],>128 µg/mL
same,MIC,[3]; [11],128 µg/mL
same,MIC,"[3]; KPM3210, KPC-2::D179N",128 µg/mL
same,MIC,[3]; [12],128 µg/mL
same,MIC,[3]; [13],>128 µg/mL
same,MIC,"[3]; KPM3214, KPC-2::D179A",128 µg/mL
same,MIC,[3]; [14],32 µg/mL
same,MIC,"[3]; KPM3494, KPC-3::R167S",128 µg/mL
same,MIC,"[3]; KPM3495, KPC-3::A175V",>128 µg/mL
same,MIC,"[3]; KPM3511, KPC-3::P174Q",64 µg/mL
same,MIC,"[3]; KPM3512, KPC-3:: P174L",16 µg/mL
same,MIC,"[3]; KPM3517, KPC-3::D179Y (KPC-31)",>128 µg/mL
same,MIC,"[3]; KPM3520, Both WT and mutant KPC-3::duplication of 8aa (aa#264–271)",>128 µg/mL
same,MIC,"[3]; KPM3523, Both WT and mutant KPC-3:: deletion of EL (aa#241–242)",128 µg/mL
same,MIC,"[3]; KPM3546, KPC-3::R164H",>128 µg/mL
same,MIC50,Pseudomonas aeruginosa [4],4 µg/mL
same,MIC90,Pseudomonas aeruginosa [4],32 µg/mL
same,% of isolates shifted by QPX7728 at or below breakpoint,"Pseudomonas aeruginosa [1]; challenge panel (N = 290), with QPX7728, 8 or 16 μg/ml for cefepime and piperacillin, respectively",70.3%
same,MIC50,Pseudomonas aeruginosa [1]; All (N = 290),32 µg/mL
same,MIC90,Pseudomonas aeruginosa [1]; All (N = 290),64 µg/mL
same,MIC50,Pseudomonas aeruginosa [1]; MBL (N = 61),64 µg/mL
same,MIC90,Pseudomonas aeruginosa [1]; MBL (N = 61),64 µg/mL
same,MIC50,Pseudomonas aeruginosa [1]; No MBL (N = 229),32 µg/mL
same,MIC90,Pseudomonas aeruginosa [1]; No MBL (N = 229),64 µg/mL
COCC1=C(C(=O)O)N2C(=O)[C@@H](NC(=O)/C(=N\OC)c3csc(N)n3)[C@H]2SC1 [Cefpodoxime],MIC50,[5]; All Enterobacterales (N = 972),>64/>64 μg/ml
same,MIC90,[5]; All Enterobacterales (N = 972),>64/>64 μg/ml
same,MIC50,[5]; CRE KPC (N = 292),>64/>64 μg/ml
same,MIC90,[5]; CRE KPC (N = 292),>64/>64 μg/ml
same,MIC50,[5]; CRE MBL (N = 226),>64/>64 μg/ml
same,MIC90,[5]; CRE MBL (N = 226),>64/>64 μg/ml
same,MIC50,[5]; CRE OXA-48 (N = 47),>64/>64 μg/ml
same,MIC90,[5]; CRE OXA-48 (N = 47),>64/>64 μg/ml
same,MIC50,"[5]; ESBLs, no CRE (N = 371)",>64/>64 μg/ml
same,MIC90,"[5]; ESBLs, no CRE (N = 371)",>64/>64 μg/ml
same,MIC50,[5]; Non-CP CRE,>64/>64 μg/ml
same,MIC90,[5]; Non-CP CRE,>64/>64 μg/ml
Nc1nc(/C(=C/CC(=O)O)C(=O)N[C@@H]2C(=O)N3C(C(=O)O)=CCS[C@H]23)cs1 [Ceftibuten],MIC50,[5]; All Enterobacterales (N = 972),32 µg/mL
same,MIC90,[5]; All Enterobacterales (N = 972),> 64 µg/mL
same,MIC50,[5]; CRE KPC (N = 292),16 µg/mL
same,MIC90,[5]; CRE KPC (N = 292),> 64 µg/mL
same,MIC50,[5]; CRE MBL (N = 226),>64/>64 μg/ml
same,MIC90,[5]; CRE MBL (N = 226),>64/>64 μg/ml
same,MIC50,[5]; CRE OXA-48 (N = 47),64/>64 μg/ml
same,MIC90,[5]; CRE OXA-48 (N = 47),64/>64 μg/ml
same,MIC50,"[5]; ESBLs, no CRE (N = 371)",8 µg/mL
same,MIC90,"[5]; ESBLs, no CRE (N = 371)",> 64 µg/mL
same,MIC50,[5]; Non-CP CRE,>64/>64 μg/ml
same,MIC90,[5]; Non-CP CRE,>64/>64 μg/ml
"Cn1c(N)c(NC(=O)NCCN)c[n+]1CC1=C(C(=O)O)N2C(=O)[C@@H](NC(=O)/C(=N\OC(C)(C)C(=O)[O-])c3nsc(N)n3)[C@H]2SC1 [Ceftolozane, ceftolozane]",MIC50,Pseudomonas aeruginosa [4],0.5 µg/mL
same,MIC90,Pseudomonas aeruginosa [4],4 µg/mL
same,MIC50,Pseudomonas aeruginosa [1]; All (N = 290),4 µg/mL
same,MIC90,Pseudomonas aeruginosa [1]; All (N = 290),>64 µg/mL
same,MIC50,Pseudomonas aeruginosa [1]; MBL (N = 61),>64 µg/mL
same,MIC90,Pseudomonas aeruginosa [1]; MBL (N = 61),>64 µg/mL
same,MIC50,Pseudomonas aeruginosa [1]; No MBL (N = 229),2 µg/mL
same,MIC90,Pseudomonas aeruginosa [1]; No MBL (N = 229),>64 µg/mL
"C[C@@H](O)[C@H]1C(=O)N2C(C(=O)O)=C(S[C@@H]3CN[C@H](C(=O)N(C)C)C3)[C@H](C)[C@H]12 [Meropenem, meropenem]",MIC,[3]; [7],64 µg/mL
same,MIC,[3]; [8],4 µg/mL
same,MIC,[3]; [9],0.5 µg/mL
same,MIC,[3]; [10],64 µg/mL
same,MIC,[3]; [11],16 µg/mL
same,MIC,"[3]; KPM3210, KPC-2::D179N",4 µg/mL
same,MIC,[3]; [12],1 µg/mL
same,MIC,[3]; [13],4 µg/mL
same,MIC,"[3]; KPM3214, KPC-2::D179A",2 µg/mL
same,MIC,[3]; [14],1 µg/mL
same,MIC,"[3]; KPM3494, KPC-3::R167S",32 µg/mL
same,MIC,"[3]; KPM3495, KPC-3::A175V",32 µg/mL
same,MIC,"[3]; KPM3511, KPC-3::P174Q",4 µg/mL
same,MIC,"[3]; KPM3512, KPC-3:: P174L",8 µg/mL
same,MIC50,[6]; [15],64 µg/mL
same,MIC90,[6]; [15],> 64 µg/mL
same,MIC90 of meropenem,[6]; with QPX7728 at 4 μg/ml,8 µg/mL
same,MIC90 of meropenem,[6]; with QPX7728 at 8 μg/ml,4 µg/mL
same,increase in meropenem potency,[6]; with increasing concentrations of QPX7728 (1–16 μg/ml),8–16 fold
same,MIC50,Pseudomonas aeruginosa [4],0.5 µg/mL
same,MIC90,Pseudomonas aeruginosa [4],16 µg/mL
same,MIC50,Pseudomonas aeruginosa [1]; All (N = 290),16 µg/mL
same,MIC90,Pseudomonas aeruginosa [1]; All (N = 290),>64 µg/mL
same,MIC50,Pseudomonas aeruginosa [1]; MBL (N = 61),>64 µg/mL
same,MIC90,Pseudomonas aeruginosa [1]; MBL (N = 61),>64 µg/mL
same,MIC50,Pseudomonas aeruginosa [1]; No MBL (N = 229),16 µg/mL
same,MIC90,Pseudomonas aeruginosa [1]; No MBL (N = 229),64 µg/mL
CSCC(=O)N[C@H]1Cc2ccc(F)c(C(=O)O)c2OB1O [RPX7323],β-lactamase inhibition (in words),β-lactamases,capable of potently inhibiting serine enzymes from classes A-D
COc1ccc2c(c1C(=O)O)OB(O)[C@@H](Sc1nncs1)C2 [RPX7546],β-lactamase inhibition (in words),β-lactamases,improved potency against MBLs
C[C@@H](O)[C@H]1C(=O)N2C(C(=O)O)=C(SC3CN(C4=NCCS4)C3)[C@H](C)[C@H]12 [Tebipenem],MIC50,[5]; All Enterobacterales (N = 972),0.25 µg/mL
same,MIC90,[5]; All Enterobacterales (N = 972),> 64 µg/mL
same,MIC50,[5]; CRE KPC (N = 292),64/>64 μg/ml
same,MIC90,[5]; CRE KPC (N = 292),64/>64 μg/ml
same,MIC50,[5]; CRE MBL (N = 226),32 µg/mL
same,MIC90,[5]; CRE MBL (N = 226),> 64 µg/mL
same,MIC50,[5]; CRE OXA-48 (N = 47),32 µg/mL
same,MIC90,[5]; CRE OXA-48 (N = 47),64 µg/mL
same,MIC50,"[5]; ESBLs, no CRE (N = 371)",≤ 0.06 µg/mL
same,MIC90,"[5]; ESBLs, no CRE (N = 371)",0.5 µg/mL
same,MIC50,[5]; Non-CP CRE,8 µg/mL
same,MIC90,[5]; Non-CP CRE,16 µg/mL
